Measurements from patent US11213029B2 (priority 2017, dated 2022).
“Also recorded” adds a separate entry of the source.

What follows are compounds tested on Xanthomonas oryzae pv. oryzae (Xoo). Settings: 8 mm paper disc, 10 mM or 20 mM, 30° C., dark condition, 24 hours; FIGS. 2 and 3.
Format: cell-based
For `C=C(C)C1CCC2(C)OC2C1` (single isomer, unassigned; (-)) [(−)-limonene oxide], the “degree of inhibition against the growth of Xoo” value was “effect of directly inhibiting the growth”.
`C=C(C)C1CC=C(C)[C@@H](O)C1` (stereo partly drawn) [L-carveol] was tested, and the “degree of inhibition against the growth of Xoo” value was “effect of directly inhibiting the growth; also recorded: particularly strong inhibitory effect”.
With `C=C(C)[C@H]1CC=C(C)C(=O)C1` [S-(+)-carvone] the “degree of inhibition against the growth of Xoo” value was “effect of directly inhibiting the growth”.
With `Cc1ccc(C(C)C)cc1O` [carvacrol] the “degree of inhibition against the growth of Xoo” value was “effect of directly inhibiting the growth”.
`CC1=CCC(C(C)(C)O)CC1` (stereo not drawn) [α-terpineol] was tested, and the “degree of inhibition against the growth of Xoo” value was “effect of directly inhibiting the growth”.
With (+)-isopulegol the “degree of inhibition against the growth of Xoo” value was “effect of directly inhibiting the growth”.
(+)-limonene oxide was tested, and the “degree of inhibition against the growth of Xoo” value was “effect of directly inhibiting the growth”.
In the case of (S)-(−)-perillyl alcohol, the “degree of inhibition against the growth of Xoo” value is reported as “effect of directly inhibiting the growth”.
(−)-isopulegol was tested, and the “degree of inhibition against the growth of Xoo” value was “effect of directly inhibiting the growth”.
For R-(−)-carvone, the “degree of inhibition against the growth of Xoo” value was “effect of directly inhibiting the growth”.

Same assay, conditions: 8 mm paper disc, 10 mM or 20 mM, 30° C., dark condition, 24 hours; FIGS. 2 and 3; listed as (R)-(−)-carvone
In the case of R-(−)-carvone, the “degree of inhibition against the growth of Xoo” value is reported as “particularly strong inhibitory effect”.

Same assay, conditions: 8 mm paper disc, 10 mM or 20 mM, 30° C., dark condition, 24 hours; FIGS. 2 and 3; listed as (S)-(+)-carvone
In the case of `C=C(C)[C@H]1CC=C(C)C(=O)C1` [S-(+)-carvone], the “degree of inhibition against the growth of Xoo” value is reported as “particularly strong inhibitory effect”.

Same assay, conditions: 8 mm paper disc, 10 mM, 30° C., 24 hours; FIG. 1
For `C=C(C)[C@@H]1CC=C(C)CC1` [(S)-(−)-limonene, S-(−)-limonene, reference compound], the “degree of inhibition against the growth of Xoo (inhibition radius)” value (“degree of inhibition … (inhibition radius)” below) was “inhibitory effect”.
`C=C(C)C1CC=C(C)[C@@H](O)C1` (stereo partly drawn) [L-carveol] was tested, and the “degree of inhibition … (inhibition radius)” value was “larger inhibition radius than that of limonene”.
With `C=C(C)[C@H]1CC=C(C)C(=O)C1` [S-(+)-carvone] the “degree of inhibition … (inhibition radius)” value was “larger inhibition radius than that of limonene”.

These compounds were tested on Xanthomonas oryzae pv. oryzae (Xoo). Settings: biplate, paper disc on opposite side, 10 mM, 30° C., dark condition, 24 hours; FIG. 4.
Format: cell-based
In the case of `C=C(C)C1CCC2(C)OC2C1` (single isomer, unassigned; (-)) [(−)-limonene oxide], the “degree of inhibition against the growth of Xoo by volatility” value (from here on “degree of inhibition … by volatility”) is reported as “did not show a strong inhibitory effect against the growth but showed a larger area for the inhibitory effect compared to those of carveol and carvone”.
In the case of `C=C(C)[C@H]1CC=C(C)CC1` [(R)-(+)-limonene, R-(+)-limonene, reference compound], the “degree of inhibition … by volatility” value is reported as “no significant effect”.
In the case of `C=C(C)[C@@H]1CC=C(C)CC1` [(S)-(−)-limonene, S-(−)-limonene, reference compound], the “degree of inhibition … by volatility” value is reported as “no significant effect”.
`C=C(C)C1CC=C(C)[C@@H](O)C1` (stereo partly drawn) [L-carveol] was tested, and the “degree of inhibition … by volatility” value was “strong inhibitory effect”.
`C=C(C)[C@H]1CC=C(C)C(=O)C1` [S-(+)-carvone] was tested, and the “degree of inhibition … by volatility” value was “strong inhibitory effect”.
In the case of R-(−)-carvone, the “degree of inhibition … by volatility” value is reported as “strong inhibitory effect”.

Each compound was assayed on Xanthomonas oryzae. Settings: by volatility, same manner as Example 3 (10 mM); FIG. 5.
Format: cell-based
In the case of `C=C(C)[C@@H]1CC=C(C)CC1` [(S)-(−)-limonene, S-(−)-limonene, reference compound], the “inhibitory effect against the growth of Xanthomonas oryzae compared to Xanthomonas fragariae and Xanthomonas axonopodis” value is reported as “more specifically significant inhibitory effect against the growth of Xanthomonas oryzae”.
For `C=C(C)C1CC=C(C)[C@@H](O)C1` (stereo partly drawn) [L-carveol], the “inhibitory effect against the growth of Xanthomonas oryzae compared to Xanthomonas fragariae and Xanthomonas axonopodis” value was “more specifically significant inhibitory effect against the growth of Xanthomonas oryzae”.
In the case of `C=C(C)[C@H]1CC=C(C)C(=O)C1` [S-(+)-carvone], the “inhibitory effect against the growth of Xanthomonas oryzae compared to Xanthomonas fragariae and Xanthomonas axonopodis” value is reported as “more specifically significant inhibitory effect against the growth of Xanthomonas oryzae”.

The compounds below were run on Magnaporthe oryzae. Settings: 500 mM (40 μl) on disc, 1.5 cm apart, 28° C., 96 hours; FIG. 7.
Format: cell-based
With `C=C(C)C1CCC2(C)OC2C1` (single isomer, unassigned; (-)) [(−)-limonene oxide] the “growth inhibition of Magnaporthe oryzae” value was “effect of inhibiting the growth”.
For `C=C(C)[C@@H]1CC=C(C)CC1` [(S)-(−)-limonene, S-(−)-limonene, reference compound], the “growth inhibition of Magnaporthe oryzae” value was “inhibited the growth”.
`C=C(C)C1CC=C(C)[C@@H](O)C1` (stereo partly drawn) [L-carveol] was tested, and the “growth inhibition of Magnaporthe oryzae” value was “effect of inhibiting the growth”.
With `C=C(C)[C@H]1CC=C(C)C(=O)C1` [S-(+)-carvone] the “growth inhibition of Magnaporthe oryzae” value was “effect of inhibiting the growth”.
`Cc1ccc(C(C)C)cc1O` [carvacrol] was tested, and the “growth inhibition of Magnaporthe oryzae” value was “effect of inhibiting the growth”.
`CC1=CCC(C(C)(C)O)CC1` (stereo not drawn) [α-terpineol] was tested, and the “growth inhibition of Magnaporthe oryzae” value was “effect of inhibiting the growth”.
With (+)-isopulegol the “growth inhibition of Magnaporthe oryzae” value was “effect of inhibiting the growth”.
With (+)-limonene oxide the “growth inhibition of Magnaporthe oryzae” value was “effect of inhibiting the growth”.
For (S)-(−)-perillyl alcohol, the “growth inhibition of Magnaporthe oryzae” value was “effect of inhibiting the growth”.
For (−)-isopulegol, the “growth inhibition of Magnaporthe oryzae” value was “effect of inhibiting the growth”.
For R-(−)-carvone, the “growth inhibition of Magnaporthe oryzae” value was “effect of inhibiting the growth”.
